Measurements taken from US10029992B2, “Diaminotriazine compounds and their use as herbicides” (BASF SE, priority 2014, dated 2018).

What was measured:
Experiment in all cases: Greenhouse experiment, post-emergence treatment
Conditions in all cases: post-emergence method, application rate 125 g/ha
AMARE = type: in vivo, Amaranthus retroflexus
Protocol: (§1) The seeds of the test plants were sown separately for each species. […] For this purpose, the test plants were either sown directly and grown in the same containers, or they were first grown separately as seedlings and transplanted into the test containers a few days prior to treatment. Depending on the species, the plants were kept at 10-25° C. or 20-35° C., respectively. The test period extended over 2 to 4 weeks. During this time, the plants were tended, and their response to the individual treatments was evaluated. Evaluation was carried out using a scale from 0 to 100. 100 means no emergence of the plants, or complete destruction of at least the aerial moieties, and 0 means no damage, or normal course of growth. A moderate herbicidal activity is given at values of at least 60, a good herbicidal activity is given at values of at least 70, and a very good herbicidal activity is given at values of at least 85. […] [table]

ABUTH = type: in vivo, Abutilon theophrasti
Protocol: as §1

SETFA = type: in vivo, Setaria faberi
Protocol: as §1

SMILES	herbicidal activity against AMARE (AMARE)	herbicidal activity against ABUTH (ABUTH)	herbicidal activity against SETFA (SETFA)
CC(C)(F)c1nc(N)nc(Nc2c(F)cccc2Oc2cc(F)cc(C#N)c2)n1 [Example 59]	very good (a very good herbicidal activity is given at values of at least 85)	very good (a very good herbicidal activity is given at values of at least 85)	very good (a very good herbicidal activity is given at values of at least 85)
COc1cc(F)cc(Oc2cccc(F)c2Nc2nc(N)nc(C(C)(C)F)n2)c1 [Example 62]	very good (a very good herbicidal activity is given at values of at least 85)	very good (a very good herbicidal activity is given at values of at least 85)	very good (a very good herbicidal activity is given at values of at least 85)
COc1cc(Br)cc(Oc2cccc(F)c2Nc2nc(N)nc(C(C)(C)F)n2)c1 [Example 61]	very good (a very good herbicidal activity is given at values of at least 85)	very good (a very good herbicidal activity is given at values of at least 85)	very good (a very good herbicidal activity is given at values of at least 85)
COc1cc(Cl)cc(Oc2cccc(F)c2Nc2nc(N)nc(C(C)(C)F)n2)c1 [Example 57]	very good (a very good herbicidal activity is given at values of at least 85)	very good (a very good herbicidal activity is given at values of at least 85)	very good (a very good herbicidal activity is given at values of at least 85)
CC(C)(F)c1nc(N)nc(Nc2c(F)cccc2Oc2cc(F)cc(Cl)c2)n1 [Example 54]	very good (a very good herbicidal activity is given at values of at least 85)	very good (a very good herbicidal activity is given at values of at least 85)	very good (a very good herbicidal activity is given at values of at least 85)
CC(C)(F)c1nc(N)nc(Nc2c(F)cccc2Oc2cc(F)cc(C(F)(F)F)c2)n1 [Example 53]	very good (a very good herbicidal activity is given at values of at least 85)	very good (a very good herbicidal activity is given at values of at least 85)	very good (a very good herbicidal activity is given at values of at least 85)
CC(C)(F)c1nc(N)nc(Nc2c(F)cccc2Oc2cc(Br)cc(Br)c2)n1 [Example 55]	very good (a very good herbicidal activity is given at values of at least 85)	very good (a very good herbicidal activity is given at values of at least 85)	very good (a very good herbicidal activity is given at values of at least 85)
CC(C)(F)c1nc(N)nc(Nc2c(F)cccc2Oc2cc(Br)cc(OC(F)(F)F)c2)n1 [Example 60]	very good (a very good herbicidal activity is given at values of at least 85)	very good (a very good herbicidal activity is given at values of at least 85)	very good (a very good herbicidal activity is given at values of at least 85)
CC(C)(F)c1nc(N)nc(Nc2c(F)cccc2Oc2cc(F)cc(Br)c2)n1 [Example 56]	very good (a very good herbicidal activity is given at values of at least 85)	good (a good herbicidal activity is given at values of at least 70)	very good (a very good herbicidal activity is given at values of at least 85)
